Structures can show the parent of a compound that is named as a salt. Where two headings read alike, the source gives them in different places. Marks after values point to notes of the source that are not given here.
Tests used:
[1] = molecular target: T1, 5-HT2C (Homo sapiens (Human), UniProt P28335); assay: IP assay (Eurofins, IP1 HTRF), HEK293 cells; type: cell-based; conditions: for 5-HT2C Rmax (%): % of Rmax of 5-HT;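 as to 5-HT2B EC50 (nM): agonist effect read as cellular IP1 production by HTRF using a europium cryptate anti-IP1 antibody donor and D2-labeled IP1 acceptor, eight compound concentrations in each cell line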;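 as to 5-HT2B Rmax: agonist effect read as cellular IP1 production by HTRF using a europium cryptate anti-IP1 antibody donor and D2-labeled IP1 acceptor, eight compound concentrations in each cell line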
T1 sequence (P28335 whole entry, looked up): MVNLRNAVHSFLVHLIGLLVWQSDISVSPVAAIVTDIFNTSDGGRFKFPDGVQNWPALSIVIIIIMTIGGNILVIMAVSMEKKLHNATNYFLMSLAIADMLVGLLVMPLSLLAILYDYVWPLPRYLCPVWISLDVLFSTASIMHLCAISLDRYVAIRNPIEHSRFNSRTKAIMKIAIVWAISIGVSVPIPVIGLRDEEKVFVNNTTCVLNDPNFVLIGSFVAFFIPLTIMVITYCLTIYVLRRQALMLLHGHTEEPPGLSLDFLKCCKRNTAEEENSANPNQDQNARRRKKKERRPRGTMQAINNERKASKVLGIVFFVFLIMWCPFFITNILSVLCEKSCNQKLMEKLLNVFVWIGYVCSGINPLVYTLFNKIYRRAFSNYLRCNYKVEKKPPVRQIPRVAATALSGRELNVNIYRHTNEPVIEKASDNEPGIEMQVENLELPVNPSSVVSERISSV
Protocol: (§1) The agonist properties of the compounds were characterized at HEK293 cell lines expressing the human 5-HT2A, human 5-HT2B or human 5-HT2C receptors in an IP assay essentially as previously described.^19 The testing was performed by Eurofins. In the assay, the agonist activity of the compound at the receptors is investigated by measuring its effect on IP1 production in the cell using the Homogeneous Time Resolved Fluorescence (HTRF) detection method. […] Following incubation, the cells were lysed, and the fluorescence acceptor (D2-labeled IP1) and fluorescence donor (anti-IP1 antibody labeled with europium cryptate) were added. […] The test compounds were characterized in eight different concentrations in duplicate at each of the three cell lines.

[2] = molecular target: T2, human 5-HT2A (Homo sapiens (Human), UniProt P28223); assay: cell-based; type: cell-based; conditions: for EC50: duplicate determinations
[3] = molecular target: 5-HT2B (Homo sapiens (Human), UniProt P41595); assay: IP assay (Eurofins, IP1 HTRF), HEK293 cells; type: cell-based; conditions: for EC50: duplicate determinations; for 5-HT2B Rmax: % of Rmax of 5-HT; for Selectivity EC50 5-HT2B/EC50 5-HT2A: bounds are conservative estimates;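 as to 5-HT2B EC50 (nM): agonist effect read as cellular IP1 production by HTRF using a europium cryptate anti-IP1 antibody donor and D2-labeled IP1 acceptor, eight compound concentrations in each cell line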;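 as to 5-HT2B Rmax: agonist effect read as cellular IP1 production by HTRF using a europium cryptate anti-IP1 antibody donor and D2-labeled IP1 acceptor, eight compound concentrations in each cell line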
5-HT2B, sequence (P41595 whole entry, looked up): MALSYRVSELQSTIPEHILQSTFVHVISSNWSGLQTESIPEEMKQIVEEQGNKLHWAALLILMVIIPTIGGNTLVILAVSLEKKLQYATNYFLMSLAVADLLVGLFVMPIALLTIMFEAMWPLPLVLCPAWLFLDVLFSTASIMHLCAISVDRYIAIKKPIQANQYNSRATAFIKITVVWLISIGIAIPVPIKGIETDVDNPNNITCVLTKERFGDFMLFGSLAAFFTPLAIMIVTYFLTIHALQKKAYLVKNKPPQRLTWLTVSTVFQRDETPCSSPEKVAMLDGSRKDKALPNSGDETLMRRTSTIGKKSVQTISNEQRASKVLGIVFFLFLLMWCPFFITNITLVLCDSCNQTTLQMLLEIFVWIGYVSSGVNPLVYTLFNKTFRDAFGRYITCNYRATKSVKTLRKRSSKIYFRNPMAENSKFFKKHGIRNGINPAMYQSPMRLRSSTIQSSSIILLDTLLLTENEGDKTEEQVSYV
Protocol: as §1

[4] = molecular target: T2, human 5-HT2A; assay: cell-based; type: cell-based; conditions: for 5-HT2A Rmax ± S.E.M: % of the Rmax of 5-HT; for Selectivity EC50 5-HT2C/EC50 5-HT2A: bounds are conservative estimates; for EC50: agonist potency, n = 3-4
[5] = system: 5-HT2A over 5-HT2C; conditions: cited from earlier work
[6] = molecular target: T1, 5-HT2C; assay: Ca2+/Fluo-4 assay, stable h5-HT2C-HEK293 cell line; type: cell-based; conditions: for 5-HT2C Rmax ± S.E.M: % of the Rmax of 5-HT; for EC50: agonist potency, n = 3-4; for 5-HT2C agonist activity (n.a./w.a.): tested up to 50 μM;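 as to all read-outs here: Agonist-induced intracellular Ca2+ rise read by Fluo-4 fluorescence in HEK293 cells stably expressing the human 5-HT2C receptor, each compound run in duplicate on three or more occasions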
[7] = system: male Sprague Dawley rats treated with ACTH or vehicle; assay: forced swim test, adrenocorticotropic hormone (ACTH) model; type: in vivo
Protocol: The adrenocorticotropic hormone model (ACTH) model was conducted as previously described.^14 Male Sprague Dawley rats were used (age 7 weeks, N=50) (Taconic Biosciences A/S, Lille Skensved, Denmark). After 1 week habituation, the rats were given either 100 μg ACTH/animal/day s.c. (Adrenocorticotropic Hormone 1-24 (China Peptides, China)) at 10 a.m. for 14 days (n=30) or vehicle (VEH) consisting of 0.9% saline (n=20). At day 14, the rats were subjected to a pre-swim test (15 minutes). […] Preceding the FST, rat baseline mobility was determined in the (OFT). The OFT and the FST were conducted as described above.

[8] = read-out: 5-HT2C [pEC50 ± S.E.M.] (converted)
[9] = read-out: 5-HT2A [pEC50 ± S.E.M.] (converted)

Row | SMILES | EC50 [1] [nM] | 5-HT2C Rmax (%) ([1]; IP assay) | 5-HT2A Rmax ([2]; IP assay, % of Rmax of 5-HT) [%] | EC50 ([2]; IP assay) [nM] | 5-HT2B Rmax [3] [%] | 5-HT2A Rmax ± S.E.M [4] [%] | Selectivity EC50 5-HT2C/EC50 5-HT2A ([4]; Ca2+/Fluo-4 assay) | EC50 ([4]; read-out: 5-HT2A EC50) [nM] | EC50 ([3]; read-out: 5-HT2B EC50) [nM] | 5-HT2C agonist activity (n.a./w.a.) [6] | also measured
1 | COc1cc(C(F)(F)F)c(OC)cc1CCN [Compound 2C-TFM, 4-trifluoromethyl-2,5-dimethoxyphenethylamine, reference compound] | 3.8 | 100 | 78 | 7.1 | 81 | – | – | – | – | – | Selectivity EC50 5-HT2C/EC50 5-HT2A ([1]; IP assay): 0.53; EC50 ([3]; 5-HT2B EC50 (nM)): 81 nM
2 | COc1cc(C2CC[C@@H](c3ccccc3OC)NC2)c(OC)cc1Br (stereo partly shown) [Compound 8a, reference compound] | – | 80 | 94 | 2300 | 20 | 87 ± 4 | 4.1 | 480 | 770 | – | Selectivity EC50 5-HT2C/EC50 5-HT2A ([1]; IP assay): 0.07; EC50 ([1]; IP assay, duplicate determinations, read-out: 5-HT2C EC50): 170 nM; Selectivity EC50 5-HT2C/EC50 5-HT2A ([1]; IP assay, listed as compound 8a): selectivity towards 5-HT2C and 5-HT2B over 5-HT2A; agonist response at 5-HT2A ([2]; IP assay, concentrations up to 100 μM): evoked significant agonist responses; agonist response at 5-HT2A ([4]; Ca2+/Fluo-4 assay, concentrations up to 50 μM): evoked significant agonist responses; Selectivity EC50 5-HT2C/EC50 5-HT2A ([4]; Ca2+/Fluo-4 assay, listed as compound 8a): only slight selectivity towards 5-HT2A over 5-HT2C; 5-HT2A-over-5-HT2C selectivity in terms of binding affinity [5]: 13 fold; 5-HT2C Rmax ± S.E.M [6]: 82 ± 3%; EC50 ([6]; read-out: 5-HT2C EC50): 2000 nM; EC50 [6, 8]: 1950 nM
3 | COc1cc(CCNCc2ccccc2O)c(OC)cc1C#N [Compound 25CN-NBOH, 4-(2-((2-hydroxybenzyl)amino)ethyl)-2,5-dimethoxybenzonitrile] | 27 | 84 | – | – | – | – | – | – | – | – | –
4 | CCSc1cc([C@@H]2CCCNC2)c(OC)cc1C(F)(F)F.Cl [Compound 47, (S)-3-(2-methoxy-5-(ethylthio)-4-(trifluoromethyl)phenyl)piperidine Hydrochloride] | – | – | 95 | 130 | 49 | 96 ± 3 | 17 | – | 620 | – | EC50 [4, 9]: 26.3 nM; 5-HT2C Rmax ± S.E.M [6]: 43 ± 6%; EC50 ([6]; read-out: 5-HT2C EC50): 450 nM; EC50 [6, 8]: 457 nM; Selectivity EC50 5-HT2B/EC50 5-HT2A [3]: 4.8
5 | COc1cc(C(F)(F)F)ccc1[C@@H]1CCCNC1 [Compound 53, (S)-3-(2-methoxy-4-(trifluoromethyl)phenyl)piperidine hydrochloride] | – | – | 87 | 250 | 51 | 68 ± 2 | – | 69 | 940 | w.a. | –
6 | COc1cc([C@@H]2CCCNC2)c(OC2CC2)cc1C(F)(F)F [Compound 55, (S)-3-(2-cyclopropoxy-5-methoxy-4-(trifluoromethyl)phenyl)piperidine hydrochloride] | – | – | 38 | 3000 | – | 30 ± 5 | >50^e | 1100 | > 100000 | w.a. | EC50 [4, 9]: 1070 nM; Selectivity EC50 5-HT2B/EC50 5-HT2A [3]: >30^c; 5-HT2B agonist activity (n.a.) ([3]; up to 100 μM (Table 3)): n.a. [@ 100 μM]^a > (no agonist activity: the compound did not evoke significant responses at concentrations up to 100 μM)
7 | CCCCc1cc(OC)c([C@@H]2CCCNC2)cc1OC [Compound 57, (S)-3-(4-butyl-2,5-dimethoxyphenyl)piperidine hydrochloride] | – | – | 62 | 190 | 18 | – | – | 270 | 350 | w.a. | –
8 | COc1cc(CC(C)N)c(OC)cc1I (stereo not shown) [DOI, 2,5-Dimethoxy-4-iodoamphetamine, reference compound] | 9.1 | 89 | – | – | 79 | – | – | – | – | – | 5-HT2A Rmax [2]: 89%
9 | CN(C)CCCN1c2ccccc2CCc2ccccc21 [imipramine] | – | – | – | – | – | – | – | – | – | – | immobility time in the forced swim test, ACTH-treated rats ([7]; ACTH-treated rats, FIG. 4A): lack of effect; immobility time in the forced swim test, vehicle-treated rats ([7]; vehicle-treated rats, 15 mg/kg i.p., FIG. 4B): significant antidepressant-like effect
